# According to US20080207653A1, “Compositions and Method for Increasing the Efficacy of Epidermal Growth Factor Receptor Tyrosine Kinase Inhibitors” (priority 2005, published 2008):
# What was measured:
# human tumor xenografts = conditions: animals; cited from earlier work
# [1] = system: chemotherapy refractory non-small cell lung cancer; conditions: cited from earlier work
# cyclin D1 protein = conditions: in vitro and in vivo, aerodigestive tract cancers; cited from earlier work
# [2] = system: human lung cancer A549 cells; assay: Erlotinib accumulation and stereoisomerization in A549 cells and treatment media (LC-MS-MS); format: cell-based; conditions: for conversion of parent drug to the 1.78 minute stereoisomer in the presence of cells: media with A549 cells
# Method: Analysis of erlotinib metabolism was carried out using erlotinib-resistance cancer cells (human lung cancer A549 cells). Cells were exposed to achievable clinical doses (3 μM) of erlotinib and then lysed at various times following exposure to the drug. Relative erlotinib concentrations were determined in the A549 cell treatment media and compared to levels of erlotinib containing media incubated in the absence of cells as a control. Erlotinib concentrations were assessed using a liquid chromatography dual mass spectrometric method. […] Based on an analysis of chemical structure, only one stereoisomer of the parent drug could account for the 1.78 minute variant form. The stereoisomer migrating at 1.78 minutes represents the L or S configuration of this molecule, wherein the configuration is determined by performing liquid chromatographic separation of the two stereoisomers followed by nuclear magnetic resonance (NMR) analysis of each.
# Culture of A549 human lung cancer cells were carried out in Ham's F12 media with L-glutamine containing 10% fetal bovine serum, amphoterecin B, penicillin, and streptomycin. Cells were plated at a density of 300,000 cells per well in a 6 well plate. Cells were allowed to adhere overnight, media was aspirated and 3 mL of treatment media containing 3 μM erlotinib was added to each well. At the same time, 3 mL of the same media was added to wells that contained no cells as a control. One hundred μL of the media was removed from the wells immediately prior to harvesting the cells at various time points. The remaining media was removed and 250 μL of distilled deionized water was added to each well. Cells were also disrupted with a rubber policeman. Each media or cell extract sample was brought to a 1 mL volume with methanol and water (final concentration 50% methanol). Fifty μL of 0.4 M ZnSO4 was added to each sample. Samples were vortexed for 10 seconds and centrifuged at 13,000 RCF for 5 minutes. The supernatants from each were subjected to LC-MS-MS chromatographic analysis using a Waters® Model 2795 system equipped with a Waters® X-Terra® MS column. The mobile phase was composed of 70% methanol containing 0.1% formic acid at a flow rate of 0.15 mL per minute. Dual mass spectroscopy was performed with 394 for the initial mass and 278 for the daughter ion (after collision using argon gas). Dual mass spectroscopic analysis of midazolam was used as an internal standard and was performed at the same time using 326 as the mass for the parent and 291 for the daughter ion. Data was collected and analyzed using Masslynx™ version 3.4 software.
smiles,measurement,setting,value
"C#Cc1cccc(Nc2ncnc3cc(OCCOC)c(OCCOC)cc23)c1 [erlotinib, N-(3-ethynylphenyl)-6,7-bis(2-methoxyethoxy)quinazolin-4-amine]",dose inhibiting proliferation of human tumor xenografts,human tumor xenografts,~10 mg/kg
same,toxicity at clinical dose,"[1]; doses in the range of 150 mg, patients",little reported toxicity
same,dose showing the ability to affect tumor growth,[1]; patients with chemotherapy refractory non-small cell lung cancer,~150 mg
same,effect on expression of cyclin D1 protein,cyclin D1 protein,represses expression of cyclin D1 protein
same,intracellular concentration of erlotinib by 8 hours,"[2]; A549 cells, 3 μM erlotinib, 8 hours",nearly undetectable levels
same,time at which intracellular concentrations of erlotinib peaked,"[2]; A549 cells, 3 μM erlotinib, cell lysates",4 h
same,total erlotinib concentrations in the treatment media over the time course,"[2]; A549 treatment media, 3 μM erlotinib",did not vary significantly
same,stereoisomer present in the media in the absence of cells,"[2]; control media without cells, throughout the time course",parent drug constituted the most abundant stereoisomer
same,conversion of parent drug to the 1.78 minute stereoisomer in the presence of cells,[2]; 4 hours,some conversion
same,conversion of parent drug to the 1.78 minute stereoisomer in the presence of cells,[2]; 8 hours,complete conversion
